As a reminder, the Ki is a measure of affinity in units of concentration, obtained from inhibition or displacement. High values mean a looser hold on the target, low ones a stronger hold on the target.

Molecules are shown by their SMILES.

In the assay the target is STAT3 SH2 domain (Homo sapiens, UniProt P40763). The assay can be described thus: Fluorescence polarization (FP) assay. Format: binding. As to the method:
Screening was performed at physiologically relevant temperature 37° C. Before each experiment, Compound LY-5 was prepared freshly from the stock solution. Compound LY-5 increased its background fluorescence reading at 595 nm at high concentrations, so the control solutions for each concentration were prepared by mixing buffer, LY-5, and fluorescence-labeled peptides together.
Screening was performed at approximately 37° C. STAT3 protein was used at 300 nM. The final concentration of buffer components used for all FP assays was 10 mM HEPES (pH 7.5), 1 mM EDTA, 0.1% Nonidet P-40, 50 mM NaCl, and 20% DMSO. Dithiothreitol was not added. LP-5 was diluted to a series of concentrations (1-200 μM) from a 20 mM stock in DMSO. Proteins were incubated with LP-5 in Eppendorf tubes at room temperature for 60 min prior addition of the 5-carboxyfluorescein labeled peptides. The final concentration of labeled peptide is 10 nM. The mixtures were transferred to a 384 Well Costar Black plate with each concentration repeated in three wells. The mixtures were equilibrated in the incubator at 37° C. for at least 30 min. The FP readings were measured and the experiments were repeated three times. Inhibition curves with standard deviation were fitted and Ki value was determined accordingly.
In general terms: Fluorescence polarisation rises when a labelled molecule tumbles more slowly, as on binding a larger partner.

STAT3 SH2 domain, sequence (P40763 580-670 limits assumed): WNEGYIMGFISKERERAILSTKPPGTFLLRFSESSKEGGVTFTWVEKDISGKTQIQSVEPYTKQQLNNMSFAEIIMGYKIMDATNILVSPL

Regarding `NS(=O)(=O)c1cccc2c1C(=O)C=C(Nc1cccnc1)C2=O` [LY-5, 5,8-dioxo-6-(pyridin-3-ylamino)-5,8-dihydronaphthalene-1-sulfonamide], where the note is “37° C., FIG. 8”, the “binding to STAT3 SH2 protein” value is “binds”. This molecule also registered a Ki (37° C., STAT3 300 nM, labeled peptide 10 nM) of 2500 nM. The “experimental ΔG value” (from FP Ki) was -7.9 kcal/mol.
